This note sets out measurements from patent publication US10689354B2, “Aminoazole derivative” (Teijin Pharma Limited, priority 2015, dated 2020).

One test addresses T1, human androgen receptor (Homo sapiens, UniProt P10275).
T1 construct: expressed in transfected cells; host or cells: HEK293
T1 sequence (P10275 1-920): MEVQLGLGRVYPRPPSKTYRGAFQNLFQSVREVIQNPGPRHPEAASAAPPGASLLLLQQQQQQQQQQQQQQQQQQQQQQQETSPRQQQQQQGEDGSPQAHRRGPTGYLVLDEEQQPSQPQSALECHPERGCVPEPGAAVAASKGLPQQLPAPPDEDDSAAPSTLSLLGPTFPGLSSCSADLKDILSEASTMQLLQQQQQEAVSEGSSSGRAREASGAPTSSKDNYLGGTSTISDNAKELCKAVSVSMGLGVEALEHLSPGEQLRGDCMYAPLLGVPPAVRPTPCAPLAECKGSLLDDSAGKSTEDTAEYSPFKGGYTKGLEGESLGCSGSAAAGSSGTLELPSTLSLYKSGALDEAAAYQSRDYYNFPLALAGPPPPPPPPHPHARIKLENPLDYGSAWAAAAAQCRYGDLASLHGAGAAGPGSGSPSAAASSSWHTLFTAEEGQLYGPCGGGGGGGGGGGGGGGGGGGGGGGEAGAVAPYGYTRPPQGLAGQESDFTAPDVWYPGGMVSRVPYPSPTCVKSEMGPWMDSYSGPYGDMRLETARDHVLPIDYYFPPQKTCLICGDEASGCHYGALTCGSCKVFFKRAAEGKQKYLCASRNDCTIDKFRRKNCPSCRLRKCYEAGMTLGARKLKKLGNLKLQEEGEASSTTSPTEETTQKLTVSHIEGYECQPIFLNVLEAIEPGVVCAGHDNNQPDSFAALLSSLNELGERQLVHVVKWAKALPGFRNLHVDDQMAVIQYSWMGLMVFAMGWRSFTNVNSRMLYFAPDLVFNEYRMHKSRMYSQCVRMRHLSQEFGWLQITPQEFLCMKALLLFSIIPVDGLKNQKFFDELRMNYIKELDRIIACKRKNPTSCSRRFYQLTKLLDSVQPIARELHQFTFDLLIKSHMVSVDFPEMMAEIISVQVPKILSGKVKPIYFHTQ
As to the kind of experiment: Reporter assay of an androgen receptor responsive sequence (luciferase, transiently transfected HEK293 cells). It counts as cell-based. To be noted: 24 hours incubation, relative to activity of 100 nM DHT, read-out: AR transcriptive activity (pEC50) (converted). A digest of the protocol: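 Agonism scored as pEC50, fitted by 4-parameter curve against the response to 100 nM DHT, from dual-luciferase readout after 24 h compound treatment. Cells were HEK293 co-transfected (3 h) with human AR expression vector, androgen-responsive firefly reporter and Renilla control, in charcoal-stripped serum.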

In test [1] the target is T2, androgen receptor (AR-LBD) (Rattus norvegicus, UniProt P15207).
T2 construct: 5 μL of 2×AR-LBD/Fluoromone AL Red Complex contained in the kit; purchased Invitrogen
T2 sequence (P15207 651-882 limits assumed): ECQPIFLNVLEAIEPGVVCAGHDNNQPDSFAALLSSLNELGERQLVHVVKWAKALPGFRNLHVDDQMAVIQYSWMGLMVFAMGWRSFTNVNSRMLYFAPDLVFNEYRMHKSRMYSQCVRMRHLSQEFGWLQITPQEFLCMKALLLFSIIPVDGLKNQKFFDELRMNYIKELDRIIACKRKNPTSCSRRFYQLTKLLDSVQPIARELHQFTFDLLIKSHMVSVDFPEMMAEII
In words: Evaluation of androgen receptor affinity (PolarScreen Androgen Receptor Competitor Assay Kit, Red; fluorescence polarization). To be noted: 22° C. for 5 hours, relative to binding rate of 1 μM DHT, read-out: AR affinity (pEC50) (converted). A digest of the protocol:
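Test compound and the 2× AR-LBD/Fluoromone AL Red complex were combined in duplicate wells. After reacting 5 h at 22° C, polarization was measured. pEC50 was derived by 4-parameter fitting, normalizing to binding obtained with 1 μM dihydrotestosterone.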

In the case of `Cc1sc(N(Cc2ccc(-c3ccc(F)cn3)nc2)c2ccc(C#N)cc2)nc1C(=O)NS(C)(=O)=O` [Compound 596, 2-[4-cyano-N-[[6-(5-fluoro-2-pyridyl)-3-pyridyl]methyl]anilino]-5-methyl-N-methylsulfonyl-thiazole-4-carboxamide], the EC50 at human androgen receptor is 3980 nM; in test [1] it was 316 nM.
The like results for `CS(=O)(=O)NC(=O)c1csc(N(Cc2ccccc2)c2ccc(C#N)cc2)n1` [Compound 597, 2-(N-benzyl-4-cyano-anilino)-N-methylsulfonyl-thiazole-4-carboxamide] were, in that order, 1000 nM and 398 nM.
The like results for `Cc1oc(N(Cc2ccccc2)c2ccc(C#N)cc2)nc1C(=O)NS(C)(=O)=O` [Compound 598, 2-(N-benzyl-4-cyano-anilino)-5-methyl-N-methylsulfonyl-oxazole-4-carboxamide] were, in that order, 2000 nM and 251 nM.
The corresponding values for `CCc1sc(N(Cc2ccccc2)c2ccc(C#N)cc2)nc1C(=O)NS(C)(=O)=O` [Compound 599, 2-(N-benzyl-4-cyano-anilino)-5-ethyl-N-methylsulfonyl-thiazole-4-carboxamide] are 79.4 nM and 63.1 nM.
`CC(C)c1sc(N(Cc2ccccc2)c2ccc(C#N)cc2)nc1C(=O)NS(C)(=O)=O` [Compound 600, 2-(N-benzyl-4-cyano-anilino)-5-isopropyl-N-methylsulfonyl-thiazole-4-carboxamide]: the results for the EC50 (on human androgen receptor; in test [1]) were more than 10000 nM and 100 nM, respectively.
The like results for `CS(=O)(=O)NC(=O)c1nc(N(Cc2ccccc2)c2ccc(C#N)cc2)sc1Br` [Compound 603, 2-(N-benzyl-4-cyano-anilino)-5-bromo-N-methylsulfonyl-thiazole-4-carboxamide] were, in that order, 31.6 nM and 50.1 nM.
The like results for `Cc1oc(N(Cc2ccc(OC(F)(F)F)cc2)c2ccc(C#N)cc2)nc1C(=O)NS(C)(=O)=O` [Compound 607, 2-[4-cyano-N-[[4-(trifluoromethoxy)phenyl]methyl]anilino]-5-methyl-N-methylsulfonyl-oxazole-4-carboxamide] were, in that order, 5010 nM and 39.8 nM.
As to `Cc1oc(N(Cc2ccc(Cl)c(Cl)c2)c2ccc(C#N)cc2)nc1C(=O)NS(C)(=O)=O` [Compound 608, 2-[4-cyano-N-[(3,4-dichlorophenyl)methyl]anilino]-5-methyl-N-methylsulfonyl-oxazole-4-carboxamide], the figures for the EC50 (at human androgen receptor; in test [1]) were 316 nM and 31.6 nM, respectively.
In the case of `CS(=O)(=O)NC(=O)c1nc(N(Cc2cc3ccccc3s2)c2ccc(C#N)cc2)sc1Br` [Compound 609, 2-[N-(benzothiophen-2-ylmethyl)-4-cyano-anilino]-5-bromo-N-methylsulfonyl-thiazole-4-carboxamide], the figures for the EC50 (at human androgen receptor; in test [1]) were 39.8 nM and 31.6 nM, respectively.
Take `Cc1oc(N(Cc2ccc(F)cc2)c2ccc(C#N)cc2)nc1C(=O)NS(C)(=O)=O` [Compound 610, 2-[4-cyano-N-[(4-fluorophenyl)methyl]anilino]-5-methyl-N-methylsulfonyl-oxazole-4-carboxamide]: the EC50 at human androgen receptor was 2510 nM; in test [1], 100 nM.
As to `Cc1oc(N(Cc2cccc(Cl)c2)c2ccc(C#N)cc2)nc1C(=O)NS(C)(=O)=O` [Compound 611, 2-[N-[(3-chlorophenyl)methyl]-4-cyano-anilino]-5-methyl-N-methylsulfonyl-oxazole-4-carboxamide], the EC50 on human androgen receptor is 2000 nM; in test [1] it was 79.4 nM.
For the compound `Cc1oc(N(Cc2cccc(F)c2)c2ccc(C#N)cc2)nc1C(=O)NS(C)(=O)=O` [Compound 612, 2-[4-cyano-N-[(3-fluorophenyl)methyl]anilino]-5-methyl-N-methylsulfonyl-oxazole-4-carboxamide], the EC50 was 3980 nM at human androgen receptor and 126 nM in test [1].
The corresponding values for `Cc1oc(N(Cc2cccc(OC(F)(F)F)c2)c2ccc(C#N)cc2)nc1C(=O)NS(C)(=O)=O` [Compound 613, 2-[4-cyano-N-[[3-(trifluoromethoxy)phenyl]methyl]anilino]-5-methyl-N-methylsulfonyl-oxazole-4-carboxamide] are more than 10000 nM and 25.1 nM.
The corresponding values for `Cc1oc(N(Cc2ccccc2OC(F)F)c2ccc(C#N)cc2)nc1C(=O)NS(C)(=O)=O` [Compound 614, 2-[4-cyano-N-[[2-(difluoromethoxy)phenyl]methyl]anilino]-5-methyl-N-methylsulfonyl-oxazole-4-carboxamide] are more than 10000 nM and 200 nM.
In the case of `Cc1oc(N(Cc2ccc3ncsc3c2)c2ccc(C#N)cc2)nc1C(=O)NS(C)(=O)=O` [Compound 616, 2-[N-(1,3-benzothiazol-6-ylmethyl)-4-cyano-anilino]-5-methyl-N-methylsulfonyl-oxazole-4-carboxamide], the EC50 on human androgen receptor was more than 10000 nM; in test [1], 251 nM.
The like results for `Cc1oc(N(Cc2cccc(C#N)c2)c2ccc(C#N)cc2)nc1C(=O)NS(C)(=O)=O` [Compound 617, 2-[4-cyano-N-[(3-cyanophenyl)methyl]anilino]-5-methyl-N-methylsulfonyl-oxazole-4-carboxamide] were, in that order, more than 10000 nM and 251 nM.
Regarding `Cc1oc(N(Cc2cc3ccccc3s2)c2ccc(C#N)cc2)nc1C(=O)NS(C)(=O)=O` [Compound 618, 2-[N-(benzothiophen-2-ylmethyl)-4-cyano-anilino]-5-methyl-N-methylsulfonyl-oxazole-4-carboxamide], the EC50 on human androgen receptor was 126 nM; in test [1], 20 nM.
On to `Cc1oc(N(Cc2ccccc2)c2ccc(C(F)(F)F)nc2)nc1C(=O)NS(C)(=O)=O` [Compound 620, 2-[benzyl-[6-(trifluoromethyl)-3-pyridyl]amino]-5-methyl-N-methylsulfonyl-oxazole-4-carboxamide], for which the EC50 was more than 10000 nM at human androgen receptor and 631 nM in test [1].
For `Cc1oc(N(CC2CCC(F)(F)CC2)c2ccc(C#N)cc2)nc1C(=O)NS(C)(=O)=O` [Compound 621, 2-[4-cyano-N-[(4,4-difluorocyclohexyl)methyl]anilino]-5-methyl-N-methylsulfonyl-oxazole-4-carboxamide], the EC50 is more than 10000 nM on human androgen receptor and more than 2000 nM in test [1].
The like results for `Cc1oc(N(CCC2CCCC2)c2ccc(C#N)cc2)nc1C(=O)NS(C)(=O)=O` [Compound 622, 2-[4-cyano-N-(2-cyclopentylethyl)anilino]-5-methyl-N-methylsulfonyl-oxazole-4-carboxamide] were, in that order, more than 10000 nM and 79.4 nM.
The like results for `CCc1oc(N(Cc2ccc(Cl)cc2)c2ccc(C#N)cc2)nc1C(=O)NS(C)(=O)=O` [Compound 623, 2-[N-[(4-chlorophenyl)methyl]-4-cyano-anilino]-5-ethyl-N-methylsulfonyl-oxazole-4-carboxamide] were, in that order, 158 nM and 31.6 nM.
The corresponding values for `Cc1oc(N(CCc2ccccc2)c2ccc(C#N)cc2)nc1C(=O)NS(C)(=O)=O` [Compound 625, 2-[4-cyano-N-(2-phenylethyl)anilino]-5-methyl-N-methylsulfonyl-oxazole-4-carboxamide] are 3980 nM and 251 nM.
